≈ marks a conversion by molar mass, not a printed value.
How the values were obtained:
[1] = system: LOX IMVI; test: Growth inhibition of human LOX IMVI cells at 10 uM relative to control; format: functional; details: read-out: GI
[2] = system: MDA-MB-468; test: Growth inhibition of human MDA-MB-468 cells at 10 uM relative to control; format: functional; details: read-out: GI
[3] = system: T47D; test: Growth inhibition of human T47D cells at 10 uM relative to control; format: functional; details: read-out: GI
[4] = system: CCRF-CEM; test: Growth inhibition of human CCRF-CEM cells at 10 uM relative to control; format: functional; details: read-out: GI
[5] = system: HL-60(TB); test: Growth inhibition of human HL-60(TB) cells at 10 uM relative to control; format: functional; details: read-out: GI
[6] = system: K562; test: Growth inhibition of human K562 cells at 10 uM relative to control; format: functional; details: read-out: GI
[7] = system: MOLT-4; test: Growth inhibition of human MOLT-4 cells at 10 uM relative to control; format: functional; details: read-out: GI
[8] = system: RPMI-8226; test: Growth inhibition of human RPMI-8226 cells at 10 uM relative to control; format: functional; details: read-out: GI
[9] = system: SR; test: Growth inhibition of human SR cells at 10 uM relative to control; format: functional; details: read-out: GI
[10] = system: A549; test: Growth inhibition of human A549 cells at 10 uM relative to control; format: functional; details: read-out: GI
[11] = system: HOP-62; test: Growth inhibition of human HOP-62 cells at 10 uM relative to control; format: functional; details: read-out: GI
[12] = system: NCI-H226; test: Growth inhibition of human NCI-H226 cells at 10 uM relative to control; format: functional; details: read-out: GI
[13] = system: NCI-H23; test: Growth inhibition of human NCI-H23 cells at 10 uM relative to control; format: functional; details: read-out: GI
[14] = system: NCI-H322M; test: Growth inhibition of human NCI-H322M cells at 10 uM relative to control; format: functional; details: read-out: GI
[15] = system: NCI-H460; test: Growth inhibition of human NCI-H460 cells at 10 uM relative to control; format: functional; details: read-out: GI
[16] = system: NCI-H522; test: Growth inhibition of human NCI-H522 cells at 10 uM relative to control; format: functional; details: read-out: GI
[17] = system: SW-620; test: Growth inhibition of human SW-620 cells at 10 uM relative to control; format: functional; details: read-out: GI
[18] = system: COLO 205; test: Growth inhibition of human COLO 205 cells at 10 uM relative to control; format: functional; details: read-out: GI
[19] = system: HCC 2998; test: Growth inhibition of human HCC 2998 cells at 10 uM relative to control; format: functional; details: read-out: GI
[20] = system: HCT-116; test: Growth inhibition of human HCT-116 cells at 10 uM relative to control; format: functional; details: read-out: GI
[21] = system: HCT-15; test: Growth inhibition of human HCT-15 cells at 10 uM relative to control; format: functional; details: read-out: GI
[22] = system: HT-29; test: Growth inhibition of human HT-29 cells at 10 uM relative to control; format: functional; details: read-out: GI
[23] = system: KM12; test: Growth inhibition of human KM12 cells at 10 uM relative to control; format: functional; details: read-out: GI
[24] = system: SF-268; test: Growth inhibition of human SF-268 cells at 10 uM relative to control; format: functional; details: read-out: GI
[25] = system: SF-295; test: Growth inhibition of human SF-295 cells at 10 uM relative to control; format: functional; details: read-out: GI
[26] = system: SF-539; test: Growth inhibition of human SF-539 cells at 10 uM relative to control; format: functional; details: read-out: GI
[27] = system: SNB-19; test: Growth inhibition of human SNB-19 cells at 10 uM relative to control; format: functional; details: read-out: GI
[28] = system: SNB-75; test: Growth inhibition of human SNB-75 cells at 10 uM relative to control; format: functional; details: read-out: GI
[29] = system: U-251; test: Growth inhibition of human U-251 cells at 10 uM relative to control; format: functional; details: read-out: GI
[30] = system: Malme-3M; test: Growth inhibition of human Malme-3M cells at 10 uM relative to control; format: functional; details: read-out: GI
[31] = system: M14; test: Growth inhibition of human M14 cells at 10 uM relative to control; format: functional; details: read-out: GI
[32] = system: MDA-MB-435; test: Growth inhibition of human MDA-MB-435 cells at 10 uM relative to control; format: functional; details: read-out: GI
[33] = system: SK-MEL-2; test: Growth inhibition of human SK-MEL-2 cells at 10 uM relative to control; format: functional; details: read-out: GI
[34] = system: SK-MEL-28; test: Growth inhibition of human SK-MEL-28 cells at 10 uM relative to control; format: functional; details: read-out: GI
[35] = system: SK-MEL-5; test: Growth inhibition of human SK-MEL-5 cells at 10 uM relative to control; format: functional; details: read-out: GI
[36] = system: UACC-257; test: Growth inhibition of human UACC-257 cells at 10 uM relative to control; format: functional; details: read-out: GI
[37] = system: UACC-62; test: Growth inhibition of human UACC-62 cells at 10 uM relative to control; format: functional; details: read-out: GI
[38] = system: IGROV-1; test: Growth inhibition of human IGROV-1 cells at 10 uM relative to control; format: functional; details: read-out: GI
[39] = system: OVCAR-4; test: Growth inhibition of human OVCAR-4 cells at 10 uM relative to control; format: functional; details: read-out: GI
[40] = system: OVCAR-5; test: Growth inhibition of human OVCAR-5 cells at 10 uM relative to control; format: functional; details: read-out: GI
[41] = system: OVCAR-8; test: Growth inhibition of human OVCAR-8 cells at 10 uM relative to control; format: functional; details: read-out: GI
[42] = system: NCI/ADR-RES; test: Growth inhibition of human NCI/ADR-RES cells at 10 uM relative to control; format: functional; details: read-out: GI
[43] = system: SK-OV-3; test: Growth inhibition of human SK-OV-3 cells at 10 uM relative to control; format: functional; details: read-out: GI
[44] = system: 786-0; test: Growth inhibition of human 786-0 cells at 10 uM relative to control; format: functional; details: read-out: GI
[45] = system: A498; test: Growth inhibition of human A498 cells at 10 uM relative to control; format: functional; details: read-out: GI
[46] = system: ACHN; test: Growth inhibition of human ACHN cells at 10 uM relative to control; format: functional; details: read-out: GI
[47] = system: CAKI-1; test: Growth inhibition of human CAKI-1 cells at 10 uM relative to control; format: functional; details: read-out: GI
[48] = system: RXF 393; test: Growth inhibition of human RXF 393 cells at 10 uM relative to control; format: functional; details: read-out: GI
[49] = system: SN12C; test: Growth inhibition of human SN12C cells at 10 uM relative to control; format: functional; details: read-out: GI
[50] = system: TK-10; test: Growth inhibition of human TK-10 cells at 10 uM relative to control; format: functional; details: read-out: GI
[51] = system: UO-31; test: Growth inhibition of human UO-31 cells at 10 uM relative to control; format: functional; details: read-out: GI
[52] = system: PC-3; test: Growth inhibition of human PC-3 cells at 10 uM relative to control; format: functional; details: read-out: GI
[53] = system: DU-145; test: Growth inhibition of human DU-145 cells at 10 uM relative to control; format: functional; details: read-out: GI
[54] = system: MCF7; test: Growth inhibition of human MCF7 cells at 10 uM relative to control; format: functional; details: read-out: GI
[55] = system: MDA-MB-231; test: Growth inhibition of human MDA-MB-231 cells at 10 uM relative to control; format: functional; details: read-out: GI
[56] = system: Hs-578T; test: Growth inhibition of human Hs-578T cells at 10 uM relative to control; format: functional; details: read-out: GI
[57] = system: BT-549; test: Growth inhibition of human BT-549 cells at 10 uM relative to control; format: functional; details: read-out: GI
[58] = molecular target: DNA; test: Displacement of methyl green from DNA (unknown origin) assessed as DNA intercalation after 24 hrs by colorimetric assay; format: nucleic-acid assay

## CCOC(=O)C1=CSC2=NC(/C=C/c3ccc(Cl)cc3)=CC(c3ccc(Cl)cc3)N12 (stereo not drawn)
[1]
  inhibition of growth at 10 µM: < 10%
[2]
  inhibition of growth at 10 µM: < 10%
[3]
  inhibition of growth at 10 µM: < 10%
[4]
  inhibition of growth at 10 µM: < 10%
[5]
  inhibition of growth at 10 µM: < 10%
[6]
  inhibition of growth at 10 µM: 12.4%
[7]
  inhibition of growth at 10 µM: 16.7%
[8]
  inhibition of growth at 10 µM: < 10%
[9]
  inhibition of growth at 10 µM: < 10%
[10]
  inhibition of growth at 10 µM: < 10%
[11]
  inhibition of growth at 10 µM: < 10%
[12]
  inhibition of growth at 10 µM: < 10%
[13]
  inhibition of growth at 10 µM: < 10%
[14]
  inhibition of growth at 10 µM: < 10%
[15]
  inhibition of growth at 10 µM: < 10%
[16]
  inhibition of growth at 10 µM: < 10%
[17]
  inhibition of growth at 10 µM: < 10%
[18]
  inhibition of growth at 10 µM: < 10%
[19]
  inhibition of growth at 10 µM: < 10%
[20]
  inhibition of growth at 10 µM: < 10%
[21]
  inhibition of growth at 10 µM: < 10%
[22]
  inhibition of growth at 10 µM: < 10%
[23]
  inhibition of growth at 10 µM: < 10%
[24]
  inhibition of growth at 10 µM: < 10%
[25]
  inhibition of growth at 10 µM: < 10%
[26]
  inhibition of growth at 10 µM: < 10%
[27]
  inhibition of growth at 10 µM: < 10%
[28]
  inhibition of growth at 10 µM: < 10%
[29]
  inhibition of growth at 10 µM: 14.6%
[30]
  inhibition of growth at 10 µM: < 10%
[31]
  inhibition of growth at 10 µM: < 10%
[32]
  inhibition of growth at 10 µM: < 10%
[33]
  inhibition of growth at 10 µM: < 10%
[34]
  inhibition of growth at 10 µM: < 10%
[35]
  inhibition of growth at 10 µM: < 10%
[36]
  inhibition of growth at 10 µM: < 10%
[37]
  inhibition of growth at 10 µM: < 10%
[38]
  inhibition of growth at 10 µM: < 10%
[39]
  inhibition of growth at 10 µM: < 10%
[40]
  inhibition of growth at 10 µM: < 10%
[41]
  inhibition of growth at 10 µM: < 10%
[42]
  inhibition of growth at 10 µM: < 10%
[43]
  inhibition of growth at 10 µM: < 10%
[44]
  inhibition of growth at 10 µM: < 10%
[45]
  inhibition of growth at 10 µM: 11.8%
[46]
  inhibition of growth at 10 µM: < 10%
[47]
  inhibition of growth at 10 µM: < 10%
[48]
  inhibition of growth at 10 µM: < 10%
[49]
  inhibition of growth at 10 µM: < 10%
[50]
  inhibition of growth at 10 µM: < 10%
[51]
  inhibition of growth at 10 µM: < 10%
[52]
  inhibition of growth at 10 µM: < 10%
[53]
  inhibition of growth at 10 µM: < 10%
[54]
  inhibition of growth at 10 µM: < 10%
[55]
  inhibition of growth at 10 µM: < 10%
[56]
  inhibition of growth at 10 µM: < 10%
[57]
  inhibition of growth at 10 µM: < 10%
[58]
  IC50: 79.28 µg/mL (≈ 173 µM)
